From patent publication US20070213297A1, “Arrays with cleavable linkers” (priority 2004, published 2007)
Marks after values point to notes of the source that are not given here.

What was measured:
[1] = test system: β3GlcNAcT; experiment: β3GlcNAcT acceptor specificity; assay type: biochemical, N. meningitidis; conditions: as acceptor substrate; lactose (4) = 100%
Method: Both enzymes, β4GalT-GalE and β3GlcNAcT, were over expressed in E. coli AD202 in a large-scale fermentor (100 L). Bacteria were cultured in 2YT medium and induced with iso-propyl-thiogalactopyranoside (IPTG) to ultimately produce 8-10 g of bacterial cell paste/L cell media. The enzymes were then released from the cells by a microfluidizer and were solubilized in Tris buffer (25 mM, pH 7.5) containing manganese chloride (10 mM) and Triton X (0.25%) to reach enzymatic activities of about 50 U/L and 115 U/L of cell culture β4GalT-GalE and β3GlcNAcT, respectively.
The structures of these disaccharides are provided below. [drawing 17]
Adding the hydrophobic para-nitrophenyl ring as an aglycon to the reducing end of the acceptors enhanced the activity of the enzyme up to 10 fold (compare 4 with 5 and 6 with 7). The increase in the enzyme activity by adding a hydrophobic aglycon to the acceptor sugar, though to the lesser extent, has also been shown for β4GalT (compare 12 with 13, 14). The relaxed substrate specificity of these enzymes makes them very useful for preparative synthesis of various carbohydrate structures, including poly-N-acetyllactosamines.

[2] = target: T1, chicken ST6GalNAc-I (Gallus gallus, UniProt Q92183); experiment: chST6GalNAc-I activity on small acceptor molecules; assay type: biochemical; conditions: α-D-galacto derivatives as acceptors
T1 construct: made in house; host or cells: insect cells
Source text: The inventors have previously reported the cloning, expression, and characterization of chicken ST6GalNAc-I and its use in preparative synthesis of the O-linked sialoside antigens, STn-, α(2-6)SiaT-, α(2-3)SiaT- and Di-SiaT-antigen. Blixt, O.; Allin, K.; Pereira, L.; Datta, A. and Paulson, J. C., J. Am. Chem. Soc. 2002, 124, 5739-5746. Briefly, the recombinant enzyme was expressed in insect cells and purified by CDP-sepharose affinity chromatography to generate approximately 10 U/L of cell culture.

[3] = test system: 2G12 anti-HIV antibody; experiment: 2G12 binding to glycan array printed on glass slide; set-up: species or system human; conditions: for Rel. spec. (relative binding activity of 2G12): glass slide glycan array, 2G12 pre-complexed with anti-IgG-FITC; for 2G12 binding on glycan array (in words): initial experiments
Method: Construction of a glycan array printed on a glass slide: The library of carbohydrate structures was obtained through chemical and chemo-enzymatic synthesis as described above, as well as natural sources. This compound library contained a N-hydroxy succinimide (NHS)-reactive primary amino group, which was printed on a commercial NHS-activated glass surface (Accelr8 Technology Corporation, Denver, Colo.) using a microarray gene printer (TSRI).
Each glycan type was printed (≈0.5 nL/spot) at various concentrations (10-100 μM) and each concentration in a replicate of six. Slides were further incubated with ethanolamine buffer to deactivate remaining NHS functional groups.
The 2G12 antibody was pre-complexed (for 10 min) with secondary human anti-IgG-FITC (2:1, 20 μg/mL) prior to application to the glycan array. After incubation with the 2G12 antibodies, the array washed by dipping the slide in buffer and water.

[4] = test system: 2G12 antibody; experiment: Carbohydrate microarray analysis of oligomannose-2G12 binding (microtiter plate); set-up: species or system human
Method: Carbohydrate microarray analysis. Ninety-six well NHS-coated microtiter plates (NoAb Biodiscoveries) were treated with 200 μL of a 1 mM methanolic solution of the amino-functionalized disulfide and alkyne containing linker (scheme V) containing 5% diisopropylethylamine (DIEA) and incubated overnight at 4° C. The microtiter plate was then washed with 2×200 μL methanol and 2×200 μL water. Next, 200 μL solutions of azido-functionalized oligomannose derivatives 21-25 at varying concentrations from 0 to 500 μM in 5% DIEA/methanol were introduced. A sprinkle of copper (I) iodide was added and the contents were allowed to react overnight at 4° C. The next day, the contents were removed and the plates were washed with 2×200 μL methanol and 2×200 μL water. The plates were then blocked with 0.1% Tween20 solution in HEPES buffer pH 7.5 at 4° C. for 1 hour and then washed with 3×200 μL HEPES buffer. […] Detection of the FITC-tagged secondary antibody was performed in 200 μL water using a fluorescence plate reader. […]
Carbohydrate Microarray Analysis. […] Kd values for the interaction of 2G12 with oligomannoses 4, 5, 7, 8, 9 (Table 9) were determined using a microtiter-based assay with detection via a fluorescent secondary antibody (see Bryan et al. (2004) J. Am. Chem. Soc. 126, 8640-41).

[5] = test system: 2G12 antibody; experiment: 2G12 binding, cleavable linker glycan array in microtiter plates; set-up: species or system human
Method: Cleavable Linker Glycan Array in Microtiter Plates: Further experiments were performed using glycans immobilized within microtiter wells with the cleavable triazole linkers described in Example 7 as shown in FIG. 11.
2G12 Binding: After washing with QH2O, wells were blocked with 10 mM HEPES buffer, pH 7.5/150 mM NaCl buffer (200 μL) containing 0.1% Tween-20 over 1 h at 4° C. The buffer was then removed and 2G12 (17 μg/mL PBS buffer; 200 μL) was incubated in the well over 1 h at 4° C. Wells were then washed with PBS buffer (3×; 200 μL) and fluorescein-conjugated Goat Anti-Human IgG antibody (14 μg/mL PBS buffer; 200 μL) was incubated in the well over 1 h in the dark at 4° C. Wells were then washed with PBS buffer (3×; 200 μL) and fluorescence was measured with an excitation wavelength of 485 nm and emission wavelength of 535 nm.
Further studies were performed using a cleavable linker array to clarify the types of mannose-containing glycans bound by the 2G12 anti-HIV antibodies. […] The results of a binding study using increasing amounts of labeled Manα1,2Manα1,3Manα1,2 Manα1,6Man glycan with a constant amount of 2G12 antibody are shown in FIG. 16.

T1 sequence (Q92183 whole entry): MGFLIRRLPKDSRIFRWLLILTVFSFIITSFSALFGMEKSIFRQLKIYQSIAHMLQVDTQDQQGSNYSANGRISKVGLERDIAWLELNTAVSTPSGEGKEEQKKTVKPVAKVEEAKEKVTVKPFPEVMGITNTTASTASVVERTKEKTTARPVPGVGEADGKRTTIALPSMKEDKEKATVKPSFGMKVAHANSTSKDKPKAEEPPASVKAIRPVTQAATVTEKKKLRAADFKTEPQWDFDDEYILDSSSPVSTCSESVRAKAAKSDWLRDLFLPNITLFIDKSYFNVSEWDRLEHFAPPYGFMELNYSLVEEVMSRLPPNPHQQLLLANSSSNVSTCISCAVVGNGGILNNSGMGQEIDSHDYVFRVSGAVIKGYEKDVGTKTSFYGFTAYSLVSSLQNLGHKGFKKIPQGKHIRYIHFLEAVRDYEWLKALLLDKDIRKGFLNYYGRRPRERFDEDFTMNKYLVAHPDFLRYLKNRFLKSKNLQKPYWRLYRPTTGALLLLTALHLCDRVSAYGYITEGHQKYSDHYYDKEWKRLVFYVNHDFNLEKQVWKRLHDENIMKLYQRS

OCC1O[C@@H](O)C(O)[C@@H](O)[C@@H]1O[C@@H]1OC(CO)[C@H](O)[C@H](O)C1O (stereo partly shown) [Compound 4]
Relative enzyme activity (%) β(1-3)GlcNAcT-activity [1]: 100% | chST6GalNAc-I activity, nmol/mg x min^−1 [2]: 2.90 nmol/mg x min^−1 | Rel. spec. (relative binding activity of 2G12) [3]: − (- = <1000)

O=[N+]([O-])c1ccc(O[C@@H]2OC(CO)[C@@H](O[C@@H]3OC(CO)[C@H](O)[C@H](O)C3O)[C@H](O)C2O)cc1 (stereo partly shown) [Compound 5]
chST6GalNAc-I activity, nmol/mg x min^−1 [2]: 1.30 nmol/mg x min^−1 | Rel. spec. (relative binding activity of 2G12) [3]: − (- = <1000)

CC(=O)N[C@H]1C(O)O[C@H](CO)[C@@H](O[C@@H]2O[C@H](CO)[C@H](O)[C@H](O)[C@H]2O)[C@@H]1O (stereo partly shown) [Compound 6]
Relative enzyme activity (%) β(1-3)GlcNAcT-activity [1]: 7% | chST6GalNAc-I activity, nmol/mg x min^−1 [2]: 12.50* nmol/mg x min^−1 | Rel. spec. (relative binding activity of 2G12) [3]: − (- = <1000)

CC(=O)N[C@@H]1[C@@H](O)[C@@H](O)[C@@H](CO)O[C@@H]1O [D-GaINAc, reference compound]
chST6GalNAc-I activity, cpm [2]: 0 cpm | chST6GalNAc-I activity, nmol/mg x min^−1 [2]: 0.00 nmol/mg x min^−1

NCCCCCO[C@H]1O[C@H](CO[C@H]2O[C@H](CO)[C@@H](O)[C@H](O)[C@@H]2O[C@H]2O[C@H](CO)[C@@H](O)[C@H](O)[C@@H]2O)[C@@H](O)[C@H](O[C@H]2O[C@H](CO)[C@@H](O)[C@H](O)[C@@H]2O[C@H]2O[C@H](CO)[C@@H](O)[C@H](O)[C@@H]2O)[C@@H]1O [Oligomannose 5]
2G12 affinity ranking (in words) [4]: greatest affinity

Man-8#aa Man8-aminoacid [Glycan 144]
2G12 binding on glycan array (in words) [3]: Binding was observed

Man-9#aa Man9-aminoacid [Glycan 145]
2G12 binding on glycan array (in words) [3]: smaller level of binding

Manα1,2 Manα1,2 Manα1,3Man
2G12 epitope/affinity (in words) [5]: optimal epitope(s) with micromolar affinity to 2G12 | Kd [5]: 0.1 µM

Manα1,2Manα1,3Manα1,2 Manα1,6Man
2G12 epitope/affinity (in words) [5]: optimal epitope(s) with micromolar affinity to 2G12
